How the values were obtained:
SARS-CoV-2 [1] = type: cell-based; conditions: Calu3 cells; for reduction of the cytopathic effect caused by viral infection: Data series 1, SARS-CoV-2, 10 and 1 μM, compared with mock and infected; for inhibitory effects on the virus-induced cytopathic effect: Data series 2, concentrations 10 μM-0.3125 μM
SARS-CoV-2 [2] = type: cell-based; conditions: 48 hours post-infection, DAPI+ cell count

Structure (SMILES) | reduction of the cytopathic effect caused by viral infection (SARS-CoV-2 [1]) | inhibitory effects on the virus-induced cytopathic effect (SARS-CoV-2 [1]) | concentration from which positive effects on the total number or survival of Calu3 cells after SARS-CoV-2 infection occur (SARS-CoV-2 [2]) | positive effects on the total number or survival of Calu3 cells after SARS-CoV-2 infection (SARS-CoV-2 [2])
Cc1sc2c(c1C)C(c1ccc(Cl)cc1)=N[C@@H](CC(N)=O)c1nnc(C)n1-2 [CPI203] | significant reduction | still evident even at the lowest concentrations | approximately 20 nM | 
COc1cc2c(cc1-c1c(C)noc1C)ncc1[nH]c(=O)n([C@H](C)c3ccccn3)c12 [IBET151] | significant reduction | still evident even at the lowest concentrations | approximately 20 nM | 
CCN(CCO)CCCC(C)Nc1ccnc2cc(Cl)ccc12 (stereo not drawn) [hydroxychloroquine, Hydroxychloroquine] | no inhibitory effects |  |  | not observed
CN(C)C(=O)c1cc2cnc(Nc3ccc(N4CCNCC4)cn3)nc2n1C1CCCC1 [ribociclib, Ribociclib] | no inhibitory effects |  |  | 

From US20230084839A1, “ACTIVE AGENTS AGAINST CORONAVIRUS INFECTIONS AND DISEASES CAUSED THEREBY” (Eberhard Karls Universität Tübigen Medizinische Fakultät, priority 2020, published 2023)
